{"source": "patent US5519029A", "about": "“2-aminoalkyl-5-aminoalkylamino substituted-isoquinoindazole-6(2H)-ones” (Boehringer Mannheim Italia, S.p.A., priority 1993, dated 1996)", "key": {"[1]": {"system": "human colon adenocarcinoma cell line (Lovo)", "assay": "MTT cytotoxicity assay, Lovo cell line", "assay_type": "cell-based", "conditions": "read-out: IC50 LOVO", "experimental": "(§1) The evaluation of the biological activity for the compounds of this invention was performed in vitro and in vivo following the protocols developed by the U.S. National Cancer Institute.\n(§2) The evaluation of the in vitro cytotoxic activity of the compounds of the invention was performed using a human colon adenocarcinoma cell line (Lovo) isolated from a metastatic nodule, and a subline expressing multidrug resistance. The subline is resistant to a number of antitumor agents, among which are doxorubicin, VP-16, and vincristine."}, "Lovo/DX [2]": {"system": "Lovo/DX", "assay": "MTT cytotoxicity assay, multidrug-resistant subline Lovo/DX", "assay_type": "cell-based, human", "conditions": "for IC50: Homo sapiens, read-out: IC50 LOVO/DX; for RI (resistance index): ratio of the IC50 for the resistant line cell to the IC50 for the sensitive cell line; for cross resistance / resistance in Lovo/DX (in words): Lovo/DX subline", "experimental": "as §1, §2"}, "[3]": {"conditions": "dose limiting, phase I and phase II; cited from earlier work"}, "[4]": {"conditions": "rat; cited from earlier work"}, "Lovo/DX [5]": {"system": "Lovo/DX", "conditions": "characterisation of subline (Grandi et al. 1986); cited from earlier work"}, "[6]": {"conditions": "cited from earlier work; for cardiotoxicity in animals (in words): animal studies"}, "[7]": {"conditions": "in vivo; cited from earlier work"}, "[8]": {"conditions": "i.p., non-tumor bearing rats, equieffective antitumor dosages; cited from earlier work"}, "[9]": {"conditions": "mostly in patients previously treated with doxorubicin; cited from earlier work"}, "[10]": {"system": "advanced breast cancer, acute leukemia and lymphoma", "conditions": "clinical trials; cited from earlier work"}, "[11]": {"system": "cell histotypes developing resistance against doxorubicin mediated by overexpression of glycoprotein P", "conditions": "doxorubicin-resistant cells; cited from earlier work"}, "[12]": {"conditions": "Lovo (sensitive) cells, MTT assay"}, "[13]": {"conditions": "Lovo/DX (resistant) cells, MTT assay"}}, "note": "Entries after “also recorded” stand apart in the source; their conditions may differ. Like-named read-outs stand apart in the source and are kept apart here.", "data": [{"compound": "CN(C)CCNc1ccc2c3c(nn2CCN)-c2cnccc2C(=O)c13", "values": [{"measurement": "IC50", "setting": "[1]; [12]", "result": 0.3, "unit": "µg/mL"}, {"measurement": "IC50", "setting": "Lovo/DX [2]; [13]", "result": 5, "unit": "µg/mL"}, {"measurement": "RI (resistance index)", "setting": "Lovo/DX [2]", "result": 16.7}]}, {"compound": "CN(C)CCn1nc2c3c(c(NCCN)ccc31)C(=O)c1ccncc1-2", "values": [{"measurement": "IC50", "setting": "[1]; [12]", "result": 0.5, "unit": "µg/mL"}, {"measurement": "IC50", "setting": "Lovo/DX [2]; [13]", "result": 22.4, "unit": "µg/mL"}, {"measurement": "RI (resistance index)", "setting": "Lovo/DX [2]", "result": 44.8}]}, {"compound": "CN(C)CCNc1ccc2c3c(nn2CCN(C)C)-c2cnccc2C(=O)c13", "values": [{"measurement": "IC50", "setting": "[1]; [12]", "result": 0.5, "unit": "µg/mL"}, {"measurement": "IC50", "setting": "Lovo/DX [2]; [13]", "result": 0.9, "unit": "µg/mL"}, {"measurement": "RI (resistance index)", "setting": "Lovo/DX [2]", "result": 1.8}]}, {"compound": "O=C1c2c(O)cccc2-c2nn(CCNCCO)c3ccc(NCCNCCO)c1c23", "note": "[CI-941]", "values": [{"measurement": "neutropenia, W.H.O. grade", "setting": "[3]", "result": 4, "unit": "W.H.O. grade"}, {"measurement": "nephrotoxicity (in words)", "setting": "[4]", "result": "marked nephrotoxicity"}]}, {"compound": "COc1cccc2c1C(=O)c1c(O)c3c(c(O)c1C2=O)C[C@@](O)(C(=O)CO)C[C@@H]3O[C@H]1C[C@H](N)[C@H](O)[C@H](C)O1", "note": "[DOXORUBICIN]", "values": [{"measurement": "IC50", "setting": "[1]; LoVo", "result": 0.9, "unit": "µg/mL"}, {"measurement": "resistance / accumulation in Lovo/DX subline (in words)", "setting": "Lovo/DX [5]", "result": "resistant; also recorded: reduced accumulation"}, {"measurement": "IC50", "setting": "Lovo/DX [2]; [13]", "result": 66.6, "unit": "µg/mL"}, {"measurement": "RI (resistance index)", "setting": "Lovo/DX [2]", "result": 74}]}, {"compound": "O=C1c2c(O)ccc(O)c2C(=O)c2c(NCCNCCO)ccc(NCCNCCO)c21", "note": "[MITOXANTRONE, 5,8-dihydroxy-1,4-bis{[2-(2-hydroxyethylamino)ethyl]amino}anthracene-9,10-dione]", "values": [{"measurement": "cardiotoxicity in animals (in words)", "setting": "[6]", "result": "diminished cardiotoxicity in comparison to doxorubicin"}, {"measurement": "myelodepressive toxicity (in words)", "setting": "[7]", "result": "remarkable myelodepressive toxicity"}, {"measurement": "IC50", "setting": "[1]; LoVo", "result": 0.04, "unit": "µg/mL"}, {"measurement": "delayed toxicity (in words)", "setting": "[8]", "result": "delayed toxicity is observed only with mitoxantrone"}, {"measurement": "clinical cardiotoxicity (in words)", "setting": "[9]", "result": "some clinical cardiotoxicity has been observed"}, {"measurement": "clinical antitumor activity (in words)", "setting": "[10]", "result": "particularly promising activity in the treatment of advanced breast cancer, acute leukemia and lymphoma"}, {"measurement": "IC50", "setting": "Lovo/DX [2]; LoVo/DX", "result": 0.9, "unit": "µg/mL"}, {"measurement": "cross resistance / resistance in Lovo/DX (in words)", "setting": "Lovo/DX [2]", "result": "acquired resistance"}]}, {"compound": "COc1cc([C@@H]2c3cc4c(cc3[C@@H](O[C@@H]3O[C@@H]5CO[C@@H](C)O[C@H]5[C@H](O)[C@H]3O)[C@H]3COC(=O)[C@H]23)OCO4)cc(OC)c1O", "note": "[VP-16]", "values": [{"measurement": "resistance / accumulation in Lovo/DX subline (in words)", "setting": "Lovo/DX [5]", "result": "resistant"}]}, {"compound": "O=C1c2ccccc2C(=O)c2c(NCCNCCO)ccc(NCCNCCO)c21", "note": "[ametantrone, 1,4-bis{[2-(2-hydroxyethylamino)ethyl]amino}anthracene-9,10-dione]", "values": [{"measurement": "cardiotoxicity in animals (in words)", "setting": "[6]", "result": "less cardiotoxic than mitoxantrone"}, {"measurement": "potency relative to mitoxantrone (fold less potent)", "setting": "[6]; in animals", "result": "about 10 fold"}, {"measurement": "myelodepressive toxicity (in words)", "setting": "[7]", "result": "remarkable myelodepressive toxicity"}, {"measurement": "cross-resistance (in words)", "setting": "[11]", "result": "cross-resistance"}, {"measurement": "cross resistance / resistance in Lovo/DX (in words)", "setting": "Lovo/DX [2]", "result": "acquired resistance"}]}, {"compound": "CC[C@]1(O)C[C@H]2CN(CCc3c([nH]c4ccccc34)[C@@](C(=O)OC)(c3cc4c(cc3OC)N(C=O)[C@H]3[C@@](O)(C(=O)OC)[C@H](OC(C)=O)[C@]5(CC)C=CCN6CC[C@]43[C@@H]65)C2)C1", "note": "[vincristine]", "values": [{"measurement": "resistance / accumulation in Lovo/DX subline (in words)", "setting": "Lovo/DX [5]", "result": "resistant"}]}]}
